One series addresses B-Raf-V600E (Homo sapiens, UniProt P15056, V600E). In words: B-Raf kinase enzyme assay (MEK1/Erk2 cascade, MBP phosphorylation, 32P). The format is biochemical. As to conditions: read-out: b-raf-V600Ekinase inhibitory activity (IC50). The protocol: <1-1> Activation of MAP Kinase 2/Erk2 by B-raf
10 μl magnesium chloride/ATP solution (500 uM ATP, 75 mM magnesium chloride) was seeded in eppendorf tube. 2.5 μl B-Raf-V600E was seed (final conc. 1 ng) in eppendorf tube and treated with 1.6 μl deactivated MEK1 (final conc. 0.4 μg). The mixture was treated with 4 μl deactivated MAP kinase 2/Erk2 (final conc. 1.0 ug). And the mixture was treated with 1 μl example solution (10 mM) dissolved in dimethyl sulfoxide which was orderly diluted. Then, assay dilution buffer I (ADBI I) was added thereto (final vol. 38 μl) to make the final volume of 38 μl, and made it reacted at 30° C. for 30 min. 5 μl of resulting solution was used for the following experiment.
<1-2> Phosphorylation of Myelin basic protein (MBP)
5 μl of the above resulting solution was treated with 10 μl assay dilution buffer, and then treated with 10 μl Myelin basic protein (MBP, 2 mg/Ml). The mixture solution was treated with 10 μl of diluted (1/10) [γ^32P] ATP (100 uCi/vial) which is diluted at 30° C. for 10 min. 25 μl of the mixture solution was spotted onto a P81 paper, and the paper was washed four times with 0.75% phosphoric acid for 10 min and once with acetone for 5 min in scintillation vial. After 5 Ml of scintillation cocktail solution was added in the scintillation vial, signals were analyzed by scintillation counter.

A further series concerns the target c-RAF (h) (Homo sapiens, UniProt P04049). Kind of series: Kinase activity profiling service (Millipore). The format is biochemical. The note with it: read-out: Kinase inhibitory activity (IC50, uM) c-RAF (h). From the text: (§1) Also, as mentioned above we tested kinase activities of the representative compounds of the examples using Kinase activity profiling service (Millipore UK Ltd Gemini Crescent, Dundee Technology Park, Dundee DD2 1SW, UK).

For a further series, the target named is SAPK2a (h) (Homo sapiens, UniProt Q16539). In words: Kinase activity profiling service (Millipore). The format is biochemical. The note with it: read-out: Kinase inhibitory activity (IC50, uM) SAPK2a (h).
Description: as §1

Another series has as its target Ret (h) (Homo sapiens, UniProt P07949). Kind of series: Kinase activity profiling service (Millipore). The format is biochemical. The note with it: read-out: Kinase inhibitory activity (IC50, uM) Ret (h).
Description: as §1

For the next series, the target named is KDR (h) (Homo sapiens, UniProt P35968). In words: Kinase activity profiling service (Millipore). The format is biochemical. The note with it: read-out: Kinase inhibitory activity (IC50, uM) KDR (h).
Description: as §1

The target in a further series is Fms (h) (Homo sapiens, UniProt P07333). Kind of series: Kinase activity profiling service (Millipore). The format is biochemical. As to conditions: read-out: Kinase inhibitory activity (IC50, uM) Fms (h).
Description: as §1

For a further series, the target named is Tie2 (h) (Homo sapiens, UniProt Q02763). Kind of series: Kinase activity profiling service (Millipore). The format is biochemical. The note with it: read-out: Kinase inhibitory activity (IC50, uM) Tie2 (h).
Description: as §1

The subject of a further series is A375P cells. Kind of series: Anti-proliferative activity on A375P cell line (MTT assay). As to conditions: A375P human melanoma cell line. The format is cell-based. The method, then:
A375P cells were purchased from American Type Culture Collection (ATCC, Rockville, Md., US) and maintained in DMEM medium (Welgene, Daegu, Korea) supplemented with 10% FBS (Welgene) and 1% penicillin/streptomycin (Welgene) in a humidified atmosphere with 5% CO2 at 37° C. The A375P cells were taken from culture substrate with 0.05% trypsin-0.02% EDTA and plated at a density of 5×10^3 cells/well in 96 well plates and then incubated at 37° C. for 24 h in a humidified atmosphere with 5% CO2 prior to treatment of various concentration (three fold serial dilution, 12 points) of test compounds. The A357P cell viability was assessed by the conventional 3-(4,5-dimethylthiazol-2-yl)-2,5-diphenyltetrazolium bromide (MTT) reduction assay. MTT assays were carried out with CellTiter 96 (Promega) according to the manufacturer's instructions.
After 1 day, 0.5 μl the representative compounds of the examples were added thereto. The representative compounds of the examples were prepared by three fold serial dilution of 10 mM stock solution in DMSO, 12 point (final conc. DMSO 0.5%). Then, 15 μl dye was added in each well. After 2 h, 100 μl stop solution was added each well. After 24 h, absorbance was measured. The absorbance at 590 nm was recorded using EnVision2103 (PerkinElmer; Boston, Mass., US). The IC50 value was calculated using GraphPad Prism 4.0 software.
For orientation: Formazan colour is commonly taken as a measure of viable cells.

The next series has as its system T3151-Bcr-Abl. The note with it: cited from earlier work.
For another series, the system named is A375 melanoma cell line. As to conditions: raf-V660E overexpression cell strain; read-out: anti-proliferative activity IC50, A375 melanoma cell line; cited from earlier work.
The conditions of series [1]: cited from earlier work.

In general, IC50 refers to the midpoint of a concentration-inhibition curve. A word on the GI50: it is the concentration giving 50% growth inhibition.

Fms (h), sequence (P07333 20-972): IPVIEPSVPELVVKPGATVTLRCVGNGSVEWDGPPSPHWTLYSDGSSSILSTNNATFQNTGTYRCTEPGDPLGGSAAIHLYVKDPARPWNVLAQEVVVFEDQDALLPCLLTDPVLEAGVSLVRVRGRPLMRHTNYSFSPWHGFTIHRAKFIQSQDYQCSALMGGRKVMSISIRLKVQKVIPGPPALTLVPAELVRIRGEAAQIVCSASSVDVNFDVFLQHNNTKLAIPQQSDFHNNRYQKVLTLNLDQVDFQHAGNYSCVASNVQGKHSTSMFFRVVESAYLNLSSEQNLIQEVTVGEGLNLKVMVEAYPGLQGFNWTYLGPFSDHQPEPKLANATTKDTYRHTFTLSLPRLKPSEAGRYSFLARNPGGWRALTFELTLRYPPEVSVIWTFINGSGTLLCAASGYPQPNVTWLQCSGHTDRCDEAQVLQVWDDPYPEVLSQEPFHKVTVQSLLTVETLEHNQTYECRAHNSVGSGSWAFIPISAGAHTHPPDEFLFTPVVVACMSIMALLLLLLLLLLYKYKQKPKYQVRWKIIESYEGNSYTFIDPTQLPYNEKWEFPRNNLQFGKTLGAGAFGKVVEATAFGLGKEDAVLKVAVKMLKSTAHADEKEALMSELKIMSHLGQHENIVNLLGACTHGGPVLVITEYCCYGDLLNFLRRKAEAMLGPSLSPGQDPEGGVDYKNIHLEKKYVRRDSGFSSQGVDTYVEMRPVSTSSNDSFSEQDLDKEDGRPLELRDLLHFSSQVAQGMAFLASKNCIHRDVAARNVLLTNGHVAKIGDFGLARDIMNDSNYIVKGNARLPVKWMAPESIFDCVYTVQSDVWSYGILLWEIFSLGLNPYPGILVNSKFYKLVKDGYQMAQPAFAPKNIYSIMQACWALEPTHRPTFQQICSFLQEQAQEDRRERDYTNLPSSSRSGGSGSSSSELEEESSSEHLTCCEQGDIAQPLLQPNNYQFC
B-Raf-V600E, sequence (P15056 whole entry V600E): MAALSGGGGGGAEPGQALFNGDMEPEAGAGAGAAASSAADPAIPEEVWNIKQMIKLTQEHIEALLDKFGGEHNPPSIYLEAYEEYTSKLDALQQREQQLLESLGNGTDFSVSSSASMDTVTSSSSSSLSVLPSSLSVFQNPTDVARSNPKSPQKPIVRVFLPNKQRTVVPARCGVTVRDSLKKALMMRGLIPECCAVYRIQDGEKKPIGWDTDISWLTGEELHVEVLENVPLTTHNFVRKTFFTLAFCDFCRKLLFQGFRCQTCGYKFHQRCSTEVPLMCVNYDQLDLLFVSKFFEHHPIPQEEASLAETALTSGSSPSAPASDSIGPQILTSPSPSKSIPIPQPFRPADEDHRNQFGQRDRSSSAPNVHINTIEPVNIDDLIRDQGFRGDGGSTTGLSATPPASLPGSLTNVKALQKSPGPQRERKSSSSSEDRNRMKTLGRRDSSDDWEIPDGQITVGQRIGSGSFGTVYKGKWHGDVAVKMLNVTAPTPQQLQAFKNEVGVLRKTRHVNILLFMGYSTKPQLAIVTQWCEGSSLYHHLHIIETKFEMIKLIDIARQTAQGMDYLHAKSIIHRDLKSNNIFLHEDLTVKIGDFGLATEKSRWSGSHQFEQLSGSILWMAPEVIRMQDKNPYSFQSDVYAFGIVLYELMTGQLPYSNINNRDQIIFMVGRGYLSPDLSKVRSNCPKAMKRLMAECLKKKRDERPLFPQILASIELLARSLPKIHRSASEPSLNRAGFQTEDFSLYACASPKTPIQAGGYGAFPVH
KDR (h), sequence (P35968 20-1356): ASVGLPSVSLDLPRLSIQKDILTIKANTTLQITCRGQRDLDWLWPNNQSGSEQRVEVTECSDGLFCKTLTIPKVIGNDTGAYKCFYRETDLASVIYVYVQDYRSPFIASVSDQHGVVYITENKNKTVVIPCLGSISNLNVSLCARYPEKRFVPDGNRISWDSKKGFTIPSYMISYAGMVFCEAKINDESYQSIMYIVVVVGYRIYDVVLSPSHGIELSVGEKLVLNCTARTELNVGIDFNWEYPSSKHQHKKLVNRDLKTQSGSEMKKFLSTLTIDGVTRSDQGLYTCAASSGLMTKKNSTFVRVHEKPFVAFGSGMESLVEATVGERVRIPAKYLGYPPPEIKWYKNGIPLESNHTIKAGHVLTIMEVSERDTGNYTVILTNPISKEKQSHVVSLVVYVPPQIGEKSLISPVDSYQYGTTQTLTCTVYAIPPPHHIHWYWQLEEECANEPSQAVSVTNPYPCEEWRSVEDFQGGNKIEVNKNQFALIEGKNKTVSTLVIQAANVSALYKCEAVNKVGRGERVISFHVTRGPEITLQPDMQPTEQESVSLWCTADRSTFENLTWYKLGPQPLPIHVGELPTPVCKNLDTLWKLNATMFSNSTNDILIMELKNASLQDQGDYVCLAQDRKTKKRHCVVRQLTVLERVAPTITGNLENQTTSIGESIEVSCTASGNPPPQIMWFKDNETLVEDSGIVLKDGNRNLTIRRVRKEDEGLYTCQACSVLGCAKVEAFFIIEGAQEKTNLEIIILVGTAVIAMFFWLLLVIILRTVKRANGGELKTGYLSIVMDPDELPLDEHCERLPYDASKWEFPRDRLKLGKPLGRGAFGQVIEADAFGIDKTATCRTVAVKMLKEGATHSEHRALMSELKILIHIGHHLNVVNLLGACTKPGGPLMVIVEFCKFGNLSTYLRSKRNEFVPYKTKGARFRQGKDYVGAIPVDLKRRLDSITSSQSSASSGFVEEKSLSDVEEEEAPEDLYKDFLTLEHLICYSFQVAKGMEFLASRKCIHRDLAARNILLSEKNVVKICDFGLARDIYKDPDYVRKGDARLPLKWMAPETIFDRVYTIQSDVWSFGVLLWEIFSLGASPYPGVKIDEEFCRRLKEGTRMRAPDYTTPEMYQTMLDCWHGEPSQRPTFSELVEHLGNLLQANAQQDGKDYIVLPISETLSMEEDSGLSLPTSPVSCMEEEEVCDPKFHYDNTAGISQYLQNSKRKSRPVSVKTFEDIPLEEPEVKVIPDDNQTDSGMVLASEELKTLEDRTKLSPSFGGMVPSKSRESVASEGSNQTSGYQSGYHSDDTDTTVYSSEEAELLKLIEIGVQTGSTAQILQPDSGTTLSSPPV
Ret (h), sequence (P07949 29-1114): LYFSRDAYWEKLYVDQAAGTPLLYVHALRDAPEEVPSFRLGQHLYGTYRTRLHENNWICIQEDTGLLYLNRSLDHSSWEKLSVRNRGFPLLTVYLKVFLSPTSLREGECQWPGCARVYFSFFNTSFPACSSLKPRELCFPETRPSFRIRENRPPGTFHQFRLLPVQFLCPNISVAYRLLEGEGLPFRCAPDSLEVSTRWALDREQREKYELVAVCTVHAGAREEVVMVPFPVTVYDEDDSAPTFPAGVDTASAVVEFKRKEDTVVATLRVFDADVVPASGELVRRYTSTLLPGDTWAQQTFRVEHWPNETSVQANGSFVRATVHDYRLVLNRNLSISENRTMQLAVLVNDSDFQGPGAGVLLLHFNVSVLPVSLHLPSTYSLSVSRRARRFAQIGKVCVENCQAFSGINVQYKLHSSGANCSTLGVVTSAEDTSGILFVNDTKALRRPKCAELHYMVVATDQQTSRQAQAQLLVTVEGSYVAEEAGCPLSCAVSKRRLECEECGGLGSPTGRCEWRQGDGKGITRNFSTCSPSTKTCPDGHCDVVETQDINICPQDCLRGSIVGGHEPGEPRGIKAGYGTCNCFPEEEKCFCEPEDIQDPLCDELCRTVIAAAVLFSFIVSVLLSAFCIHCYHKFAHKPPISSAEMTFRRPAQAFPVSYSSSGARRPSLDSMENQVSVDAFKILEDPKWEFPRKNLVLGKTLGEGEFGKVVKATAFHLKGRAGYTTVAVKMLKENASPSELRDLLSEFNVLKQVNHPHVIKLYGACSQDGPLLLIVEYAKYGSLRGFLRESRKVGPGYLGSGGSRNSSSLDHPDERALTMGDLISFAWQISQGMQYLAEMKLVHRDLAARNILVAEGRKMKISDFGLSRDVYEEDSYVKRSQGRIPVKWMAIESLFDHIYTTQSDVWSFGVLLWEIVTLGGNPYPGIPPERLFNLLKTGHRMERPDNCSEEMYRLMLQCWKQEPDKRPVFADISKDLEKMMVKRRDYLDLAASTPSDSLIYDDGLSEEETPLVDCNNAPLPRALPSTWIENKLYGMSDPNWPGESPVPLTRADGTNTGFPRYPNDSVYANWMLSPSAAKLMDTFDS
SAPK2a (h), sequence (Q16539 whole entry): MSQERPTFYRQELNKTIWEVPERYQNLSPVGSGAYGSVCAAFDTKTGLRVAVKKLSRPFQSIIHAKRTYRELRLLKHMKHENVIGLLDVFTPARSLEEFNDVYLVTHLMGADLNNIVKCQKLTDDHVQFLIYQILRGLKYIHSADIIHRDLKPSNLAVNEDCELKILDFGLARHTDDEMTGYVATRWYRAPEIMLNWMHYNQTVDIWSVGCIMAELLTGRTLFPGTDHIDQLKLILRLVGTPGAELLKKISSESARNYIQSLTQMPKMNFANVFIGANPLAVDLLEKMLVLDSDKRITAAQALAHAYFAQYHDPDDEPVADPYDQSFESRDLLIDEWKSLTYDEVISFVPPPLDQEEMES

In the case of `Cc1ccc(NC(=O)Nc2ccc(Cl)c(C(F)(F)F)c2)cc1-c1ccc2c(C(=O)NCCN3CCOCC3)n[nH]c2c1` [Example 64, 6-(5-(3-(4-chloro-3-(trifluoromethyl)phenyl)ureido)-2-methylphenyl)-N-(2-morpholinoethyl)-1H-indazole-3-carboxamide], the IC50 was below 10 µM on B-Raf-V600E; 137 µM on c-RAF (h); 167 µM at SAPK2a (h); 603 µM at Ret (h); 332 µM on KDR (h); 141 µM at Fms (h). Moreover, the concentration for half-maximal inhibition (IC50) on Tie2 (h) came out at 1510 µM. Further, the GI50 with A375P cells was below 10 µM.

As to `Cc1cn(-c2cc(NC(=O)c3ccc(C)c(Nc4nccc(-c5cccnc5)n4)c3)cc(C(F)(F)F)c2)cn1` [Nilotinib], in the series on T3151-Bcr-Abl, the “activity on T3151-Bcr-Abl” value is “inactive”.

`CCCS(=O)(=O)Nc1ccc(F)c(C(=O)c2c[nH]c3ncc(Cl)cc23)c1F` [PLX-4720]: in the series with A375 melanoma cell line, the IC50 is 0.5 µM.

Turning to `CNC(=O)c1cc(Oc2ccc(NC(=O)Nc3ccc(Cl)c(C(F)(F)F)c3)cc2)ccn1` [Sorafenib], the “skin toxicity side effect, grade” value in series [1] (600 mg twice a day) is listed as 3. The “MTD (maximum tolerated dose)” value in [1] (twice a day, phase II clinical investigation) was 400 mg.

The record behind these values is patent US8754209B2, “Indazole derivatives or pharmaceutically acceptable salts thereof as protein kinase inhibitors for proliferative diseases treatment, and a pharmaceutical composition containing the same as an active ingredient” (Korea Institute of Science and Technology, priority 2009, dated 2014).
